Test results taken from patent publication US20200054660A1, “DNA M[…] FOR T-CELL IMMUNOTHERAPY” (priority 2016, published 2020).

Test system: virus-specific CD8 T cells
Set-up: species or system mice
Conditions: mouse, in vivo

Nc1ncn([C@H]2C[C@H](O)[C@@H](CO)O2)c(=O)n1 [DAC, 5-aza-2′-deoxycytidine]
Ki67+ virus-specific CD8 T cells: significant increase | T cell expansion: did not observe an enhancement | expansion of virus-specific T cells in spleen, lungs and liver: enhanced expansion | quantity of gp33-specific CD8 T cells in the peripheral blood: striking increase
